Assay results from patent US6495699B2, “Metalloproteinase inhibitors, pharmaceutical compositions containing them, and their use” (Agouron Pharmaceuticals Inc., priority 1996, dated 2002).

What was measured:
[1] = biological target: T1, Human matrilysin (Matr) (Homo sapiens, UniProt P09237); assay: Fluorometric MCA-peptide hydrolysis assay, matrilysin (Matr); assay type: biochemical; conditions: apparent Ki; 10 μM MCA peptide substrate, 37° C., pH 7.5; read-out: Matr (Ki,app)
T1 construct: the catalytic domain was liberated by treatment with 2 mM APMA at 37° C. for 2 hours; ubiquitin (cleaved yes); made in house; host or cells: E. coli
T1 sequence (P09237 95-267): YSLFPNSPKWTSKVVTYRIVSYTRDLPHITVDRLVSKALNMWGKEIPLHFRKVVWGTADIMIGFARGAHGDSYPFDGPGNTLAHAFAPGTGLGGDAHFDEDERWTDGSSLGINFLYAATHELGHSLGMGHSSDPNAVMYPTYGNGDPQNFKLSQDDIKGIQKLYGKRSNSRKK
How it was run: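 Catalytic domain of E. coli-expressed human matrilysin assayed at 37° C, pH 7.5 Tricine buffer, 2% DMSO, with 10 μM MCA-Pro-Leu-Gly-Leu-DPA-Ala-Arg-NH2; fluorescence ex 328/em 393 nm over 60 min. Ki,app from steady-state rates fitted to competitive inhibition or Morrison tight-binding equation.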

[2] = biological target: T2, fibroblast collagenase-1 catalytic domain (HFC) (Homo sapiens, UniProt P03956); assay: Fluorometric MCA-peptide hydrolysis assay, fibroblast collagenase-1 (HFC); assay type: biochemical; conditions: apparent Ki; 10 μM MCA peptide substrate, 37° C., pH 7.5; read-out: HFC (Ki,app)
T2 construct: The catalytic domain of human collagenase-1 was expressed as a fusion protein with ubiquitin in E. coli; ubiquitin (cleaved yes); made in house; host or cells: E. coli
T2 sequence (P03956 100-269 limits assumed): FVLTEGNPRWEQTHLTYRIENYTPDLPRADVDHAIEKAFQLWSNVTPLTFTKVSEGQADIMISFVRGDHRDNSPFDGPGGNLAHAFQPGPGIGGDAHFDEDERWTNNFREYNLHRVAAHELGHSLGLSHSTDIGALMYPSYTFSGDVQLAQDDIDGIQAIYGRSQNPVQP
Description: The catalytic domain of human collagenase-1 was expressed as a fusion protein with ubiquitin in E. coli (see Gehring, E. R., J Biol. Chem., 1995, 270, 22507). After purification of the fusion protein, the fibroblast collagenase-1 catalytic domain (HFC) was released either by treatment with purified, active stromelysin-1 (1:50 w/w ratio), which generated nearly 100% N-terminal Phe1, or by autoprocessing the concentrated collagenase-1 fusion and then incubating at 37° C. for 1 hour. Final purification was completed using zinc chelate chromatography.
Assays were performed in assay buffer (50 mM Tricine pH 7.5, 200 mM sodium chloride, 10 mM calcium chloride, 0.5 mM zinc acetate containing 2% dimethyl sulfoxide (DMSO)) once the substrate and inhibitor were diluted into it. Stock solutions of inhibitors were prepared in 100% DMSO. Stock solutions of the substrate were prepared in 100% DMSO at a concentration of 6 mM.
The assay method was based on the hydrolysis of MCA-Pro-Leu-Gly-Leu-DPA-Ala-Arg-NH2 (American Peptide Co.) at 37° C. (see Knight, C. G. et al., FEBS, 1992, 296, 263-266). The fluorescence changes were monitored with a Perkin-Elmer LS-50B fluorimeter using an excitation wavelength of 328 nm and an emission wavelength of 393 nm. The substrate concentration used in the assays was 10 μM. The inhibitor was diluted into the assays from a solution in 100% DMSO, and controls substituted an equal volume of DMSO so that the final DMSO concentration from inhibitor and substrate dilution in all assays was 2%. […] Proper determination of steady-state rates of substrate cleavage required assay lengths of 60 minutes to allow for complete equilibration of the enzyme-inhibitor complex.
The Km for the MCA peptide substrate with the matrix metalloproteinases is quite high and exceeds its solubility under assay conditions. Consequently, the apparent Ki (Ki,app) was determined to describe the strength of inhibition. However, in this case, Ki,app would be essentially equal to Ki since [S]<<Km. For the determination of Ki,app, the concentration of the inhibitor was varied at a constant and low concentration of substrate and the steady-state rates of fluorescence change determined. In most cases absorptive quench due to the presence of ligand was not observed. For slow-binding inhibitors, onset of inhibition curves were collected for at least 45 minutes so that equilibrium was established. Steady-state rates of fluorescence change were obtained by fitting a curve to an equation for a single exponential decay containing a linear phase. The fitted value of the linear phase was taken as the steady-state rate. The steady-state rates were fitted to the Michaelis equation describing competitive inhibition by non-linear methods. Data resulting from tight-binding inhibition was analyzed, and Ki,app determined by fitting the data to the tight-binding equation of Morrison (Biochem. Biophys. Acta, vol. 185, pp. 269-286 (1969)) by non-linear methods.

[3] = biological target: T3, catalytic domain of human stromelysin (Hsln) (Homo sapiens, UniProt P08254); assay: Fluorometric MCA-peptide hydrolysis assay, stromelysin (Hsln); assay type: biochemical; conditions: apparent Ki; 10 μM MCA peptide substrate, 37° C., pH 7.5; read-out: Hsln (Ki,app)
T3 construct: The catalytic domain of human stromelysin (Hsln) was obtained by expression and purification of a C-terminally truncated prostromelysin-1; made in house; host or cells: E. coli BL21
How it was run: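 APMA-activated E. coli–expressed catalytic domain, with 10 μM MCA-Pro-Leu-Gly-Leu-DPA-Ala-Arg-NH2 at 37 °C. Buffer was pH 7.5 Tricine with NaCl, CaCl2, zinc acetate and 2% final DMSO; fluorescence read at ex 328/em 393 nm over 60 min. Ki,app from steady-state rates fitted to competitive or Morrison tight-binding equations.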

[4] = biological target: T4, human progelatinase A (GelA), catalytic and fibronectin-like portion (Homo sapiens, UniProt P08253); assay: Fluorometric MCA-peptide hydrolysis assay, gelatinase A (GelA); assay type: biochemical; conditions: apparent Ki; 10 μM MCA peptide substrate, 37° C., pH 7.5
T4 construct: The catalytic and fibronectin-like portion of human progelatinase A (GelA) was expressed as a fusion protein with ubiquitin; ubiquitin; made in house; host or cells: E. coli
How it was run: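 E. coli-expressed ubiquitin fusion of human proGelA catalytic plus fibronectin-like domains, autoactivated; 10 μM MCA-Pro-Leu-Gly-Leu-DPA-Ala-Arg-NH2, pH 7.5 Tricine/NaCl/CaCl2/Zn buffer, 2% DMSO, 37° C, 60 min. Fluorescence 328/393 nm; steady-state rates fitted to competitive inhibition or Morrison tight-binding equation giving Ki,app (≈Ki since [S]<<Km).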

[5] = biological target: T5, human collagenase-3 (Coll3) (Homo sapiens, UniProt P45452); assay: Fluorometric MCA-peptide hydrolysis assay, collagenase-3 (Coll3); assay type: biochemical; conditions: apparent Ki; 10 μM MCA peptide substrate, 37° C., pH 7.5; read-out: Coll3 (Ki,app)
T5 construct: the catalytic domain was liberated by treatment with 2 mM APMA at room temperature overnight; ubiquitin (N, cleaved yes); made in house; host or cells: E. coli

[6] = Determination of inhibitor concentration in plasma after oral dosing; assay type: in vivo, Sprague Dawley rats; conditions: Sprague-Dawley, rat plasma
Description: The dosing solution consisted of the inhibitor dissolved in either a molar equivalent of HCl in water (vehicle A), in 60% aq. propylene glycol (vehicle B), or in 2.8 mg/mL sodium bicarbonate in 60% aqueous propylene glycol (vehicle C), yielding a final concentration that ranged from 10-15 mg/ml. Sprague Dawley rats (Hilltop Lab Animals, Scottsdale, Pa.) were dosed as a function of drug weight per body weight, usually 50 mgper kg. Blood was taken from the rats and centrifuged, and the plasma was stored in the freezer. Drug was extracted from a 50 μl plasma aliquot by adding 1 ml of acetonitrile, shaking for 2 minutes, centrifuging for 15 minutes at 4000 rpm, collecting the supernatant, and then evaporating it to dryness under a stream of nitrogen. The samples were reconstituted with 130 μl of mobile phase, shook for 2 minutes, and centrifuged for 15 minutes at 4000 rpm. The supernatant was collected and the samples were analyzed by injecting 100 μl of supernatant onto HPLC.
Quantitation of drug levels was accomplished by generating a standard curve of known drug amounts that were extracted from added plasma. Drug levels were plotted as a function of time and analyzed to provide area under the curve (AUC) and maximum concentration (Cmax) values.

[7] = dose 50 mg/kg, vehicle B, dosed as the benzyl ester prodrug
[8] = dose 25 mg/kg, vehicle A (molar equivalent of HCl in water)
[9] = dose 50 mg/kg, vehicle A, dosed as the benzyl ester prodrug
[10] = dose 50 mg/kg, vehicle B (60% aq. propylene glycol)
[11] = dose 25 mg/kg, vehicle C (2.8 mg/mL sodium bicarbonate in 60% aqueous propylene glycol)

T4 sequence (P08253 110-465 limits assumed): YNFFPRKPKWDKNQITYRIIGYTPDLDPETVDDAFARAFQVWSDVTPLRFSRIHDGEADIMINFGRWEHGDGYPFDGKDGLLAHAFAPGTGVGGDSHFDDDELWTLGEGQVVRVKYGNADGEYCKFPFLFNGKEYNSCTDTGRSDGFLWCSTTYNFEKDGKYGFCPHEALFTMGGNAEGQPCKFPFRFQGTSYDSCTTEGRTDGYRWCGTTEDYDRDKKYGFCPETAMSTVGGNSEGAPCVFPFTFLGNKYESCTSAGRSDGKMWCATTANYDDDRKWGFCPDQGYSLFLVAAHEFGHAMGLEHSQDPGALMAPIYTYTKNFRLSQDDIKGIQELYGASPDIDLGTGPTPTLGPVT
T3 sequence (P08254 100-272 limits assumed): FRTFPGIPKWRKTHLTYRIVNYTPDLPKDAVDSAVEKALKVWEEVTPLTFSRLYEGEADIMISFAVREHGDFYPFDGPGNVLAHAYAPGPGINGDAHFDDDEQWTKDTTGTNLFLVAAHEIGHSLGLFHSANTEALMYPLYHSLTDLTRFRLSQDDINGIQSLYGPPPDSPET

Row | Structure (SMILES) | melting point | Ki [1] [nM] | Ki [2] [nM] | Ki [3] [nM] | GelA (Ki,app) [4] [nM] | Ki [5] [nM] | other results
1 | COC(=O)c1ccc(NC(=O)[C@H](CC(C)C)NC(=O)[C@@H](CC(=O)O)c2ccsc2)cc1 [Example 17(b), 4-[2(S)-[2(R)-Carboxymethyl-2-(thien-3-yl)acetylamino]-4-methyl-valeroyl]-aminobenzoic Acid Methyl Ester] | 199 to 201 °C | 309 | 20000 | 720 |  |  | 
2 | O=C(O)C[C@H](C(=O)N[C@H]1Cc2cn(c3ccccc23)CCOCCNC1=O)n1ccc(-c2ccc(-c3ccncc3)cc2)c1 [Example 7(a), N-(8-Oxo-4-oxa-1,7-diazatricyclo[9.6.1.0^12,17]octadeca-11(18),12,14,16-tetraen-9(S)-yl)-3(R)-[3-[4-(pyridin-4-yl)phenyl]-1H-pyrrol-1-yl]succinamic Acid] | > 172 °C (dec.) | 640 | 333 | 2 | 0.015 | 0.013 | 
3 | COC(=O)c1ccc(NC(=O)[C@H](CC(C)C)NC(=O)[C@@H](CC(=O)O)c2cccs2)cc1 [Example 17(a), 4-[2(S)-(2(R)-Carboxymethyl-2-(thien-2-yl)acetylamino]-4-methyl-valeroyl]-aminobenzoic Acid Methyl Ester] | 197 to 200 °C | 454 | 32000 | 965 |  |  | 
4 | CNC(=O)[C@@H](NC(=O)[C@@H](CC(=O)O)n1ccc(-c2ccc(-c3ccncc3)cc2)c1)C(C)(C)C [Example 6(b), N-(2,2-Dimethyl-1(S)-(methylcarbamoyl)propyl)-3(R)-[3-(4-(pyridin-4-yl)phenyl)-1H-pyrrol-1-yl]succinamic Acid] |  |  | 2900 | 3.6 | 0.066 | 0.21 | AUC [6, 7]: 617 ng·h/mL; Cmax [6, 7]: 300 ng/mL
5 | CC1(C)COC(=O)[C@H]1NC(=O)[C@@H](CC(=O)O)n1ccc(-c2ccc(-c3ccncc3)cc2)c1 [Example 6(c), N-(4,4-Dimethyl-2-oxo-tetrahydrofuran-3(S)-yl)-3(R)-[3-[4-(pyridin-4-yl)phenyl]-1H-pyrrol-1-yl]succinamic Acid] |  | 5000 |  | 54 | 0.806 | 7.6 | AUC [6, 8]: 933 ng·h/mL; Cmax [6, 8]: 450 ng/mL; AUC [6, 9]: 4420 ng·h/mL; Cmax [6, 9]: 1140 ng/mL
6 | CC(C)(C)[C@H](NC(=O)[C@@H](CC(=O)O)n1ccc(-c2ccc(-c3ccncc3)cc2)c1)C(=O)Nc1ccncc1 [Example 7(b), N-[2,2-Dimethyl-1(S)-(pyridin-4-ylcarbamoyl)propyl]-3(R)-[3-[4-(pyridin-4-yl)phenyl]-1H-pyrrol-1-yl]succinamic Acid] |  | 5 | 453 | 0.29 | 0.007 | 0.01 | AUC [6, 10]: 400 ng·h/mL; Cmax [6, 10]: 210 ng/mL
7 | O=C(O)C[C@H](C(=O)N[C@H](CO)Cc1ccccc1)c1ccn(-c2ccc(-c3ccccc3)cc2)c1 [Example 13] | 151 to 154 °C | 16900 | 72000 | 35 | 1.7 | 21 | 
8 | CCOC(=O)c1ccc(NC(=O)[C@H](CC(C)C)NC(=O)[C@@H](CC(=O)O)n2cccc2)cc1 [Example 1(n), 4-[2S-(3-Carboxy-2(R)-1H-pyrrol-1-yl-propionylamido)-4-methyl-pentanoylamino]benzoic Acid Ethyl Ester] | 111 to 114 °C | > 10000 | 1900 | 2000 |  | 8500 | 
9 | CC1(C)COC(=O)[C@H]1NC(=O)[C@@H](CC(=O)O)c1ccn(-c2ccc(-c3ccc(C#N)cc3)cc2)c1 [Example 14(d), 3(S)-[1-(4′-Cyanobiphenyl-4-yl)-1H-pyrrol-3-yl]-N-(4,4-dimethyl-2-oxo-tetrahydrofuran-3(S)-yl)succinamic Acid] |  |  |  | 19 | 0.9 |  | AUC [6, 11]: 5820 ng·h/mL; Cmax [6, 11]: 1370 ng/mL
10 | CNC(=O)[C@@H](NC(=O)[C@@H](CC(=O)O)c1ccn(-c2ccc(F)cc2)c1)C(C)(C)C [Example 14(a), N-[2,2-Dimethyl-1(S)-(methylcarbamoyl)propyl]-3(S)-[1-(4-fluorophenyl)-1H-pyrrol-3-yl]succinamic Acid] |  |  |  | 558 | 4.3 | 7.2 | AUC [6, 10]: 1570 ng·h/mL; Cmax [6, 10]: 820 ng/mL
